B1: TRAIL: recombinant human TNF-related apoptosis-inducing ligand (protein, UniProt P50591 1-281, looked up)
Tumor necrosis factor ligand …: MAMMEVQGGPSLGQTCVLIVIFTVLLQSLCVAVTYVYFTNELKQMQDKYSKSGIACFLKEDDSYWDPNDEESMNSPCWQVKWQLRQLVRKMILRTSEETISTVQEKQQNISPLVRERGPQRVAAHITGTRGRSNTLSSPNSKNEKALGRKINSWESSRSGHSFLSNLHLRNGELVIHEKGFYYIYSQTYFRFQEEIKENTKNDKQMVQYIYKYTSYPDPILLMKSARNSCWSKDAEYGLYSIYQGGIFELKENDRIFVSVTNEHLIDMDHEASFFGAFLVG
B2: FasL (protein)
chain: PSPPPEKKELRKVAHLTGKSNSRSMPLEWEDTYGIVLLSGVKYKKGGLVINETGLYFVYSKVYFRGQSCNNLPLSHKVYMRNSKYPQDLVMMEGKMMSYCTTGQMWARSSYLGAVFNLTSADHLYVNVSELSLVNFEESQTFFGLYKL

Columns and labels:
[1] = molecular target: T1, recombinantly expressed CAMK1D protein kinase (Homo sapiens, UniProt Q8IU85); assay: radiometric protein kinase assay (33PanQinase Activity Assay) of CAMK1D kinase activity; type: biochemical; details: 10 concentrations (1x10-05 M to 3x10-10 M), singlicate; read-out: IC50 of CAMK1D kinase inhibition
T1 construct: purchased ProQinase (Freiburg, Germany)
Experimental: QPP was identified as CAMK1D inhibitor in a radiometric protein kinase assay (PanQinase® Activity Assay) used for measuring the kinase activity of a recombinantly expressed CAMK1D protein kinase. All assays were performed with a BeckmanCoulter/SAGIAN™ Core System.

KMM-1-luc cells [2] = assay: blocking assay: CAMK1D inhibitor plus rHuFasL, luciferase-based cytotoxicity assay; type: cell-based, human; details: KMM-1 multiple myeloma cells; rHuFasL 100 ng/mL, 20 h
Experimental: (§1) KMM-1-luc cells were reverse transfected with the desired siRNA sequences in white 96-well-plate (Perkin Elmer) and incubated for 48 h at 37° C., 5% CO2. At the same day of transfection MILs were thawn and treated with benzonase (too IU/mL) (Merck). Cell density was adjusted to 0.6×10^6 cells/mL in CLM supplemented with 3000 IU/mL rhuIL-2 (Novartis) for 48 h. IL-2 was depleted 24 h before the co-culture. Flu TC were thawn 6 h before co-culture. For the cytotoxicity setting, MILs, flu TC, the supernatant of activated MILs or rHuFasL were added to transfected tumor cells at desired E:T ratio/concentration, and incubated for 20 h at 37° C., 5% CO2. For the viability setting, only CLM was added to the tumor cells. After co-culture, supernatant was removed, remaining tumor cells were lysed using 40 μL/well of cell lysis buffer for 10 min. After tumor cell lysis, 60 μL/well of luciferase assay buffer was added and luciferase intensity was measured by using the Spark 20M plate reader (Tecan) with a counting time of 100 msec. Luciferase activities (relative luminescence units=RLUs) were either represented as raw luciferase values or as normalized data to scramble or unstimulated controls. For the experiments using the anti-Calmodulin (W7) (Tocris) inhibitor, 1×10^4 KMM-1-luc (scr or CAMK1D-transfected) cells/well were seeded in white 96 well plates (Perkin Elmer) in 100 μL of RPMI 10% FCS. […]

Mel270 cells = assay: as above; type: cell-based, human; details: Mel270 uveal melanoma cells; rHuFasL 100 ng/mL, 20 h
Experimental: as §1

KMM-1-luc cells [3] = assay: blocking assay: CaM inhibitor (W7) with or without rHuFasL, luciferase-based cytotoxicity assay; type: cell-based, human
Experimental: (§2) KMM-1-luc cells were reverse transfected with the desired siRNA sequences in white 96-well-plate (Perkin Elmer) and incubated for 48 h at 37° C., 5% CO2. At the same day of transfection MILs were thawn and treated with benzonase (too IU/mL) (Merck). Cell density was adjusted to 0.6×10^6 cells/mL in CLM supplemented with 3000 IU/mL rhuIL-2 (Novartis) for 48 h. IL-2 was depleted 24 h before the co-culture. Flu TC were thawn 6 h before co-culture. For the cytotoxicity setting, MILs, flu TC, the supernatant of activated MILs or rHuFasL were added to transfected tumor cells at desired E:T ratio/concentration, and incubated for 20 h at 37° C., 5% CO2. For the viability setting, only CLM was added to the tumor cells. After co-culture, supernatant was removed, remaining tumor cells were lysed using 40 μL/well of cell lysis buffer for 10 min. After tumor cell lysis, 60 μL/well of luciferase assay buffer was added and luciferase intensity was measured by using the Spark 20M plate reader (Tecan) with a counting time of 100 msec. Luciferase activities (relative luminescence units=RLUs) were either represented as raw luciferase values or as normalized data to scramble or unstimulated controls.
For the experiments using the anti-Calmodulin (W7) (Tocris) inhibitor, 1×10^4 KMM-1-luc (scr or CAMK1D-transfected) cells/well were seeded in white 96 well plates (Perkin Elmer) in 100 μL of RPMI 10% FCS. The small molecule inhibitor was added at the indicated concentrations for 1 h at 37° C., before 100 ng/mL rHuFasL or medium control was added. DMSO treatment served as negative control. After 20 h stimulation, luciferase-based cytotoxicity assay was performed. For CAMK1D inhibition, 1×10^4 KMM-1-luc or 1×10^4 Mel270 cells/well were incubated overnight in a 96 well plate. OMX2001 was added at the indicated concentrations 1 h before rHuFasL stimulation (100 ng/mL) or medium control. DMSO treatment served as negative control. After 20h stimulation, luciferase-based cytotoxicity assay was performed.

KMM-1-luc cells [4] = assay: luciferase-based cytotoxicity assay of siRNA-transfected tumour cells co-cultured with MILs; type: cell-based, human; details: for T cell mediated cytotoxicity: co-culture with MILs, 10:1 E:T ratio; for viability impact of siRNA per se: viability setting, culture medium instead of T cells
Experimental: (§3) Gene knockdown in tumor cells was induced using reverse siRNA transfection with Lipofectamine RNAiMAX (Thermo Scientific). Briefly, 200 μL of 250 nM siRNA solution was added to each well of a 6-well plate. 4 μl of RNAiMAX transfection reagent was diluted in 196 μL of RPMI (Sigma-Aldrich) and incubated for 10 min at room temperature (RT). 400 μL of additional RPMI was added and 600 μL of RNAiMAX mix was given to the siRNA coated wells and incubated for 30 min at RT. 3.5×10^5 KMM-1 (WT or luc) cells were resuspended in 1.2 mL of antibiotic-free RPMI culture medium supplemented with 10% FCS, seeded in the siRNA-RNAiMAX containing wells and incubated for 48 h at 37° C., 5% CO2. Final siRNA concentration was 25 nM in all cases.
as §2

CAMK1D mRNA = CAMK1D mRNA knockdown by qPCR; type: cell-based, human; details: KMM-1 cells, 48h after transfection, normalized to β-actin
Experimental: Gene expression was measured using end-point PCR. Briefly, total RNA was isolated from cell pellets using the RNeasy Mini kit (Qiagen) according to the manufacturer's guidelines. 1 μg of RNA was reverse transcribed to complementary DNA (cDNA) using the QuantiTect reverse transcription kit (Qiagen) according to the manufacturer's protocol. Synthesized cDNA was amplified using conventional PCR. PCR samples were set up in a 25 μL volume using 2×MyTaq HS Red Mix (Bioline), 500 nM of gene-specific primer mix and 100 ng of template cDNA. The PCR program was set as the following: 95° C. for 3 min, 35 cycles of 3 repetitive steps of denaturation (95° C. for 30 s), annealing (60° C. for 30 s) and extension (72° C. for 30 s), and a final step at 72° C. for 5 min. PCR products were run on a 2% agarose gel in TAE buffer using a gel electrophoresis system (Thermo Scientific) and DNA bands were visualized using UV light of myECL Imager (Thermo Scientific). Knockdown efficiency of siRNA sequences was measured by quantitative PCR (qPCR). For qPCR, 10 ng of template cDNA, 2× QuantiFast SYBR Green PCR mix (Qiagen) and 300 nM of gene-specific primer mix was used per 20 μL reaction and each sample was prepared in triplicates. Reactions were run using the QuantStudio 3 (Applied Biosystems). Expression of several genes was normalized to the expression of β-actin gene and the analysis was performed using comparative Ct method.
as §3, with “Final siRNA concentration was 25 nM in all cases.” left out

CAMK1D = CAMK1D protein knockdown by western blot; type: cell-based, human; details: KMM-1 cells, 48h after transfection
Experimental: as §3
30 μg of protein lysates were denaturated in 4×NuPAGE LDS Sample Buffer (Thermo Scientific) containing 100% ß-mercaptoethanol (PAN) at 70° C. for 10 min. Samples were spun down and separated on NuPAGE 4-12% Bis-Tris Gels (Thermo Scientific) along with PageRuler Prestained Protein Ladder (Thermo Scientific) and run at 115-150 V for 90 min.
Proteins were transferred from the gel to a PVDF membrane (Millipore) using a semi-dry western blot method. The PVDF blotting membrane (Merck Millipore) was activated in 100% methanol (Merck Millipore) for 1 min and afterwards placed in Transfer Buffer (Thermo Science) until use. Blots were assembled from anode to cathode into the Pierce Power Blot cassette (Thermo Scientific) and run at 24 V for 10 min. Membranes were washed in ix TBS and then placed in blocking solution (5% BSA/0.05% TBST) for 2 h. […] The blots were incubated with the ECL Detection Reagent (Reagent A and Reagent B, 1:1, GE Healthcare) for 4 min and the chemiluminescence was detected with myECL Imager (Thermo Scientific).

KMM-1-luc cells [5] = assay: treatment of scr or siCAMK1D transfected cells with recombinant FasL, TRAIL or TNF, luciferase activity; type: cell-based, human; details: siCAMK1D transfected KMM-1, 20h treatment
Experimental: as §2

Row | Molecule | T cell mediated cytotoxicity (KMM-1-luc cells [4]) | viability impact of siRNA per se (KMM-1-luc cells [4]) | CAMK1D expression at mRNA level (CAMK1D mRNA) | CAMK1D expression at protein level (CAMK1D) | other results
1 | Cc1cc(Nc2nc(-c3ccccc3)nc3ccccc23)n[nH]1 [QPP, (5-Methyl-1H-pyrazol-3-yl)-(2-phenylquinazolin-4-yl)amine] | – | – | – | – | IC50 [1]: 2940 nM; tumour cell viability (luciferase intensity) after inhibitor plus recombinant FasL (KMM-1-luc cells [2]): induced a significant tumour cell viability; tumour cell viability (luciferase intensity) after inhibitor plus recombinant FasL (Mel270 cells): induced a significant tumour cell viability
2 | Cl.NCCCCCCNS(=O)(=O)c1cccc2c(Cl)cccc12 [W-7 hydrochloride] | – | – | – | – | effect on FasL induced tumour cell apoptosis (KMM-1-luc cells [3]; 5 μM, with rHuFasL): sharply recapitulated the effect of CAMK1D silencing; toxicity to KMM-1 cells (tumour cell survival by luciferase intensity) (KMM-1-luc cells [3]; 5 μM, without rHuFasL): not toxic; further increase of FasL-mediated tumour cell killing (KMM-1-luc cells [3]; combination of W-7 hydrochloride with CAMK1D silencing, after FasL exposure): 3 fold
3 | s1: siRNA targeting hCAMK1D, UGAAGUGUAUCCCUAAGAA, Dharmacon D-004946-01, SEQ ID NO. 3 (chemistry not given here) | increased T cell mediated cytotoxicity | no viability impact | significantly reduced CAMK1D expression | significantly reduced CAMK1D expression | –
4 | s2: siRNA targeting hCAMK1D, CAAAUCACCUGUACUUGGU, Dharmacon D-004946-02, SEQ ID NO. 4 (listed as RNA, chemistry not given here) | increased T cell mediated cytotoxicity | no viability impact | significantly reduced CAMK1D expression | significantly reduced CAMK1D expression | –
5 | s3: siRNA targeting hCAMK1D, CCGAAAAUCUCUUGUACUA, Dharmacon D-004946-03, SEQ ID NO. 5 (listed as RNA, chemistry not given here) | increased T cell mediated cytotoxicity | no viability impact | significantly reduced CAMK1D expression | significantly reduced CAMK1D expression | –
6 | B1 | – | – | – | – | reduction of CAMK1D-deficient tumour cells after exposure (KMM-1-luc cells [5]): to a much lesser degree
7 | B2 | – | – | – | – | reduction of CAMK1D-deficient tumour cells after exposure (KMM-1-luc cells [5]): dramatically reduced

Reference: patent US20230228760A1, “INTRACELLULAR KINASE ASSOCIATED WITH RESISTANCE AGAINST T-CELL MEDIATED CYTOTOXICITY, AND USES THEREOF” (iOmx Therapeutics AG, priority 2020, published 2023)
